Test results taken from publication PMC6220272, “Scaffold-Hopping from Synthetic Drugs by Holistic Molecular Representation” (Scientific Reports, 2018).

Assays:
Type in all cases: cell-based
[1] = biological target: T1, human RXRα ligand binding domain (Gal4 hybrid receptor) (Homo sapiens, UniProt P19793); assay: Gal4 hybrid reporter gene assay RXRα; settings: HEK293T cells, n ≥ 4, read-out: RXRα EC50 ± SEM
T1 construct: expressed in transfected cells; host or cells: HEK293T
T1 sequence (P19793 227-458 limits assumed): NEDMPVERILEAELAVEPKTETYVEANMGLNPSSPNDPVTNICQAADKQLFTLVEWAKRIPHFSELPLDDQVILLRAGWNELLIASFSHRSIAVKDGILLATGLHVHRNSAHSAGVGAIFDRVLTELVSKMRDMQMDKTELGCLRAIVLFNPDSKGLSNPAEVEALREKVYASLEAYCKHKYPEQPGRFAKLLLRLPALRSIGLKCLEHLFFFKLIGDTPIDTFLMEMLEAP
Experimental: The 20 top-ranked synthetic compounds were selected and tested in vitro for their modulatory activity on RXR (Supplementary Table 1). Compounds were tested in specific hybrid reporter gene assays for RXRα, RXRβ and RXRγ modulation[39]–[41]. These assays rely on a constitutively expressed hybrid receptor composed of the respective human RXR ligand binding domain and the DNA binding domain of the Gal4 receptor from yeast. A Gal4 responsive firefly luciferase was used as reporter gene and constitutively expressed renilla luciferase served as internal control for transfection efficiency and test compound toxicity. All selected compounds were tested at 50 µM concentration on RXRα and for active compounds (Supplementary Fig. 1), dose response curves were recorded on all three RXR subtypes.
(§1) The Gal4 hybrid reporter gene assays were conducted as reported previously[39]–[41]. pFA-CMV-based constructs comprising the ligand binding domain of the human nuclear receptor in question were used as expression plasmids for the chimera receptors. pFR-Luc (Stratagene) served as reporter plasmid and pRL-SV40 (Promega) for normalization of transfection efficiency and cell growth. The assays were conducted in 96-well format in HEK293T cells that were cultured as described previously[39]–[41]. Transient transfection was carried out using Lipofectamine LTX reagent (Invitrogen) according to the manufacturer’s protocol. After transfection and incubation with test compounds (12–14 h), cells were assayed for luciferase activity using Dual-Glo™ Luciferase Assay System (Promega) according to the manufacturer’s protocol. Luminescence was measured with an Infinite M200 luminometer (Tecan Deutschland GmbH). All hybrid assays were validated with reference agonists (PPARα: GW7647; PPARγ: pioglitazone; PPARδ: L165,041; LXRα/β: T0901317; FXR: GW4064; RXRs: bexarotene; RARs: tretinoin; VDR: calcitriol; CAR: CITCO; PXR: SR12813) which yielded EC50 values in agreement with literature. The assays were conducted in duplicates with at least two independent repeats and for active compounds repeated without hybrid receptor coding DNA for every test compound at the highest tested concentration to exclude unspecific effects.
Supplementary Figure 2. Dose-response curves for RXRα activation. Compounds were tested in specific hybrid reporter gene assays for RXRα, RXRβ and RXRγ modulation.^1–3 These assays rely on a constitutively expressed hybrid receptor composed of the respective human RXR ligand binding domain and the DNA binding domain of the Gal4 receptor from yeast. A Gal4 responsive firefly luciferase was used as reporter gene and constitutively expressed renilla luciferase served as internal control for transfection efficiency and test compound toxicity. […]

PPARα = biological target: T2, PPARα (Homo sapiens, UniProt Q07869); assay: Gal4 hybrid reporter gene assay PPARα (selectivity profiling)
T2 construct: expressed in transfected cells; host or cells: HEK293T
T2 sequence (Q07869 239-466 limits assumed): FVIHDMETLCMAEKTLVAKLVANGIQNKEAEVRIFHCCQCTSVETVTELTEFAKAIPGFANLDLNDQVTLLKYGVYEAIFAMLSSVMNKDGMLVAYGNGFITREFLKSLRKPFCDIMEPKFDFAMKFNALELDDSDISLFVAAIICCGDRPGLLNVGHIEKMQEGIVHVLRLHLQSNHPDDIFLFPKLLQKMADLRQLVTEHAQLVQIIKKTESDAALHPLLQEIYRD
Experimental: (§2) Moreover, 7 was characterized for its ability to modulate RXR target gene expression under more physiological conditions. Hepatoma cells (HepG2) were incubated with 7 (30 µM) or reference RXR agonist bexarotene (9, 1 µM) for eight hours and mRNA expression of RXR regulated genes ATP-binding cassette transporter A1 (ABCA1), angiopoietin like protein 4 (ANGPTL4) and apolipoprotein E (ApoE) was analysed by quantitative real-time PCR.
as §1, with “All hybrid assays were validated with reference agonists (PPARα: GW7647; PPARγ: pioglitazone; PPARδ: L165,041; LXRα/β: T0901317; FXR: GW4064; RXRs: bexarotene; RARs: tretinoin; VDR: calcitriol; CAR: CITCO; PXR: SR12813) which yielded EC50 values in agreement with literature. The assays were conducted in duplicates with at least two independent repeats and for active compounds repeated without hybrid receptor coding DNA for every test compound at the highest tested concentration to exclude unspecific effects.” left out

[2] = biological target: T3, farnesoid X receptor [FXR] (Homo sapiens, UniProt Q96RI1); assay: Gal4 hybrid reporter gene assay FXR (selectivity profiling)
T3 construct: expressed in transfected cells; host or cells: HEK293T
T3 sequence (Q96RI1 262-486 limits assumed): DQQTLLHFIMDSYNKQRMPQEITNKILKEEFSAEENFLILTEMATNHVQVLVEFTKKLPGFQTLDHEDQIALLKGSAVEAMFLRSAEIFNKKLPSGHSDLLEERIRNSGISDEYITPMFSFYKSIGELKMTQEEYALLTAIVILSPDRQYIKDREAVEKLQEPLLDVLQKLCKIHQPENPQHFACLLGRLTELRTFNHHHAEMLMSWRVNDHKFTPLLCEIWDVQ
Experimental: as §2
as §1, with “All hybrid assays were validated with reference agonists (PPARα: GW7647; PPARγ: pioglitazone; PPARδ: L165,041; LXRα/β: T0901317; FXR: GW4064; RXRs: bexarotene; RARs: tretinoin; VDR: calcitriol; CAR: CITCO; PXR: SR12813) which yielded EC50 values in agreement with literature. The assays were conducted in duplicates with at least two independent repeats and for active compounds repeated without hybrid receptor coding DNA for every test compound at the highest tested concentration to exclude unspecific effects.” left out

RARα = biological target: T4, RARα (Homo sapiens, UniProt P10276); assay: Gal4 hybrid reporter gene assay RARα (selectivity profiling)
T4 construct: expressed in transfected cells; host or cells: HEK293T
T4 sequence (P10276 183-417 limits assumed): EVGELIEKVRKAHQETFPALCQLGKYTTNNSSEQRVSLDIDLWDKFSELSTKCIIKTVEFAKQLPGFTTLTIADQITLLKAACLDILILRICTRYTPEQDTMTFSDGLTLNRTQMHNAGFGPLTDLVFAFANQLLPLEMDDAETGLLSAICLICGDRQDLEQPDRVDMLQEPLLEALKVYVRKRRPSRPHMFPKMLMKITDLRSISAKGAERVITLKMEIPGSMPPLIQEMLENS
Experimental: as §2
as §1, with “All hybrid assays were validated with reference agonists (PPARα: GW7647; PPARγ: pioglitazone; PPARδ: L165,041; LXRα/β: T0901317; FXR: GW4064; RXRs: bexarotene; RARs: tretinoin; VDR: calcitriol; CAR: CITCO; PXR: SR12813) which yielded EC50 values in agreement with literature. The assays were conducted in duplicates with at least two independent repeats and for active compounds repeated without hybrid receptor coding DNA for every test compound at the highest tested concentration to exclude unspecific effects.” left out

[3] = test system: apolipoprotein E (ApoE) mRNA in HepG2 cells; assay: Target gene quantification (quantitative real-time PCR), ApoE; settings: HepG2, 7 at 30 µM versus bexarotene at 1 µM, 8 h, qRT-PCR
Experimental: as §2
HepG2 cells were incubated with test compound 7 (30 µM) or bexarotene (1 µM) as positive control each dissolved in 0.1% DMSO or 0.1% DMSO alone as untreated control for 8 h, harvested, washed with cold phosphate buffered saline (PBS) and then directly used for RNA extraction with the Total RNA Mini Kit (R6834-02, Omega Bio-Tek, Inc., Norcross, GA, USA). 2 µg RNA were reverse-transcribed into cDNA using the High-Capacity cDNA Reverse Transcription Kit (4368814, Thermo Fischer Scientific, Inc.). RXR target gene expression was evaluated by quantitative real time PCR analysis with a StepOnePlus™ System (Life Technologies, Carlsbad, CA, USA) using PowerSYBRGreen (Life Technologies; 12.5 µl per well) and the primers reported in Supplementary Table 4[58]. […] The expression was quantified by the comparative ∆∆Ct method. […] Results are expressed as mean ± standard error of the mean (SEM) relative mRNA expression compared to DMSO (0.1%) control which was set as 1.

CC(C)(C)c1cc(/C=N/NC(=O)c2ccc(N)cc2)cc(C(C)(C)C)c1 [Compound 7]
EC50 [1]: 32.1 ± 0.9 µM
activity on PPARα (PPARα): no activity
activity on FXR [2]: no activity
activity on RARα (RARα): no activity
induction of ApoE mRNA expression [3]: comparable efficacy as RXR agonist bexarotene
